The values that follow come from PMC11844072, “Novel 5,6-dichlorobenzimidazole derivatives as dual BRAFWT and BRAFV600E inhibitors: design, synthesis, anti-cancer activity and molecular dynamics simulations” (BMC Chemistry, 2025).

Experiment in all cases: NCI 5-dose assay
Common to all, as to type: cell-based

The test system of one assay is SK-MEL-2. The following applies: Homo sapiens; SK-MEL-2, Melanoma. The protocol:
(§1) The synthesized dichlorobenzimidazoles 10a–p were assayed for their influence on divers cancer cell lines according to the method presented in the Additional file A.
(§2) 5. Screening of cytotoxic activity against a panel of sixty human tumor cell lines
(§3) The selected compounds by NCI were evaluated for their anticancer activity in a two-stage process. First, these compounds were screened against the full NCI 60 cell lines panel at a single high dose of 10 µM. Then, the output from the single dose screen is reported as a mean graph. […]
(§4) at five different minimal concentrations.
(§5) Assay protocol. The human tumor cell lines of the cancer screening panel are grown in RPMI 1640 medium containing 5% fetal bovine serum and 2 mM L-glutamine. For a typical screening experiment, cells are inoculated into 96 well microtiter plates in 100 µL at plating densities ranging from 5000 to 40,000 cells/well depending on the doubling time of individual cell lines. After cell inoculation, the microtiter plates are incubated at 37 °C, 5% CO 2, 95% air and 100% relative humidity for 24 h prior to addition of the experimental drugs.
(§6) After 24 h, two plates of each cell line are fixed in situ with TCA, to represent a measurement of the cell population for each cell line at the time of drug addition (Tz). The experimental drugs are solubilized in dimethyl sulfoxide at 400-fold the desired final maximum test concentration and stored frozen prior to use. At the time of drug addition, an aliquot of frozen concentrate is thawed and diluted to twice the desired final maximum test concentration with complete medium containing 50 µg/mL gentamicin. Additional four, 10-fold or ½ log serial dilutions are made to provide a total of five drug concentrations plus control.
(§7) Aliquots of […] of these different drug dilutions are added to the appropriate microtiter wells already containing […] of medium, resulting in the required final drug concentrations.
(§8) Following drug addition, the plates are incubated for an additional 48 h at 37 °C, 5% CO 2, 95% air, and 100% relative humidity. For adherent cells, the assay is terminated by the addition of cold TCA.
(§9) Cells are fixed in situ by the gentle addition of 50 µL of cold 50% (w/v) TCA (final concentration, 10% TCA) and incubated for 60 min at 4 °C. The supernatant is discarded, and the plates are washed five times with tap water and air dried. Sulforhodamine B (SRB) solution ([…]) at 0.4% (w/v) in 1% acetic acid is added to each well, and plates are incubated for 10 min at room temperature. After staining, unbound dye is removed by washing five times with 1% acetic acid and the plates are air dried. Bound stain is subsequently solubilized with 10 mM trizma base, and the absorbance is read on an automated plate reader at a wavelength of 515 nm. For suspension cells, the methodology is […]
(§10) the same except that the assay is terminated by fixing settled cells at the bottom of the wells by gently adding 50 µl of 80% TCA (final concentration, 16% TCA). Using the seven absorbance measurements [time zero, (Tz), control growth, (C), and test growth in the presence of drug at the five concentration levels (Ti)], the percentage growth is calculated at each of the drug concentrations […]
(§11) Percentage growth inhibition is calculated as: [(Ti Tz)/(C–Tz)] x 100 for concentrations for which Ti>/=Tz and [(Ti-Tz)/Tz] x 100 for concentrations for which Ti < Tz.
(§12) Three dose response parameters are calculated for each experimental agent. Growth […]
(§13) concentration resulting in a 50% reduction in the net protein increase (as measured by SRB staining) in control cells during the drug incubation. The drug concentration resulting in total growth inhibition (TGI) is calculated from Ti = Tz. […]
(§14) reduction in the measured protein at the end of the drug treatment as compared to that at the beginning) indicating a net loss of cells following treatment is calculated from [(Ti–Tz)/Tz] x 100 =
(§15) _50. Values are calculated for each of these three parameters if the level of activity is reached; […]

The next assay has as its system SN12C. As to conditions: Homo sapiens, Renal cancer. The protocol:
as §1, §2, §3, §4, §5, §6, §7, §8, §9, §10, §11, §12, §13, §14, §15

For another assay, the system named is MALME-3M. As to conditions: Homo sapiens, Melanoma. The procedure:
as §1, §2, §3, §4, §5, §6, §7, §8, §9, §10, §11, §12, §13, §14, §15

For a further assay, the system named is IGROV1. The following applies: Homo sapiens, IGROV-1; IGROV1, Ovarian cancer. The protocol: as §1, §2, §3, §4, §5, §6, §7, §8, §9, §10, §11, §12, §13, §14, §15
The subject of another assay is K-562. The following applies: Homo sapiens, K562; K-562, Leukemia. The procedure:
as §1, §2, §3, §4, §5, §6, §7, §8, §9, §10, §11, §12, §13, §14, §15

The test system of the next assay is ACHN. As to conditions: Homo sapiens, Renal cancer. The protocol:
as §1, §2, §3, §4, §5, §6, §7, §8, §9, §10, §11, §12, §13, §14, §15

The test system of a further assay is SNB-19. The following applies: Homo sapiens; SNB-19, CNS cancer. The protocol:
as §1, §2, §3, §4, §5, §6, §7, §8, §9, §10, §11, §12, §13, §14, §15

For another assay, the system named is HL-60(TB). The following applies: Homo sapiens, Leukemia. The protocol: as §1, §2, §3, §4, §5, §6, §7, §8, §9, §10, §11, §12, §13, §14, §15
For a further assay, the system named is U251. The following applies: Homo sapiens, U-251; U251, CNS cancer. The protocol: as §1, §2, §3, §4, §5, §6, §7, §8, §9, §10, §11, §12, §13, §14, §15
For a further assay, the system named is NCI-H460. As to conditions: Homo sapiens; NCI-H460, Non-small cell lung cancer. The protocol: as §1, §2, §3, §4, §5, §6, §7, §8, §9, §10, §11, §12, §13, §14, §15
Another assay concerns LOX IMVI. As to conditions: Homo sapiens, Melanoma. The protocol: as §1, §2, §3, §4, §5, §6, §7, §8, §9, §10, §11, §12, §13, §14, §15
For a further assay, the system named is EKVX. The following applies: Homo sapiens, Non-small cell lung cancer. The protocol: as §1, §2, §3, §4, §5, §6, §7, §8, §9, §10, §11, §12, §13, §14, §15
The subject of the next assay is MOLT-4. As to conditions: Homo sapiens; MOLT-4, Leukemia. The procedure:
as §1, §2, §3, §4, §5, §6, §7, §8, §9, §10, §11, §12, §13, §14, §15

In another assay the test system is DU-145. As to conditions: Homo sapiens; DU-145, Prostate cancer. The procedure: as §1, §2, §3, §4, §5, §6, §7, §8, §9, §10, §11, §12, §13, §14, §15
The subject of another assay is HCC-2998. The following applies: Homo sapiens; HCC-2998, Colon cancer. The protocol: as §1, §2, §3, §4, §5, §6, §7, §8, §9, §10, §11, §12, §13, §14, §15
The subject of the next assay is MDA-MB-435. The following applies: Homo sapiens; MDA-MB-435, Melanoma. The procedure:
as §1, §2, §3, §4, §5, §6, §7, §8, §9, §10, §11, §12, §13, §14, §15

The next assay concerns HCT-15. The following applies: Homo sapiens; HCT-15, Colon cancer. The protocol:
as §1, §2, §3, §4, §5, §6, §7, §8, §9, §10, §11, §12, §13, §14, §15

A further assay has as its system HCT-116. As to conditions: Homo sapiens; HCT-116, Colon cancer. The procedure:
as §1, §2, §3, §4, §5, §6, §7, §8, §9, §10, §11, §12, §13, §14, §15

The subject of another assay is NCI-H322M. As to conditions: Homo sapiens, Non-small cell lung cancer. The procedure: as §1, §2, §3, §4, §5, §6, §7, §8, §9, §10, §11, §12, §13, §14, §15
For another assay, the system named is CCRF-CEM. As to conditions: Homo sapiens, Leukemia. The procedure: as §1, §2, §3, §4, §5, §6, §7, §8, §9, §10, §11, §12, §13, §14, §15
A further assay has as its system RXF 393. As to conditions: Homo sapiens; RXF 393, Renal cancer. The protocol: as §1, §2, §3, §4, §5, §6, §7, §8, §9, §10, §11, §12, §13, §14, §15
The subject of a further assay is NCI-H226. The following applies: Homo sapiens; NCI-H226, Non-small cell lung cancer. The procedure: as §1, §2, §3, §4, §5, §6, §7, §8, §9, §10, §11, §12, §13, §14, §15
Another assay relates to OVCAR-5. As to conditions: Homo sapiens; OVCAR-5, Ovarian cancer. The procedure:
as §1, §2, §3, §4, §5, §6, §7, §8, §9, §10, §11, §12, §13, §14, §15

In the case of `COC(=O)COc1ccc(C=NNC(=O)Cn2c(-c3ccc(OC)cc3)nc3cc(Cl)c(Cl)cc32)cc1` [Compound 10h, Methyl-2-(4-((2-(2-(5,6-dichloro-2-(4-methoxyphenyl)-1H-benzo[d]imidazol-1-yl)acetyl)hydrazono)methyl)phenoxy)acetate], the GI50 with SK-MEL-2 worked out at 10.5 µM; in the assay with SN12C, 2.95 µM; with MALME-3M, 9.18 µM; in the assay with IGROV1, 4.06 µM; in the assay on K-562, 11.3 µM; with ACHN, 7.84 µM. For the same compound, the GI50 was > 82.5 µM in the assay with SNB-19; > 82.5 µM in the assay with HL-60(TB); 14.1 µM with U251; > 82.5 µM in the assay with NCI-H460; 6.83 µM with LOX IMVI; 18.8 µM in the assay with EKVX. Also, the GI50 in the assay on MOLT-4 was 5.36 µM; with DU-145, 1.67 µM; with HCC-2998, 13.1 µM; in the assay with MDA-MB-435, 14.8 µM; in the assay with HCT-15, 11.2 µM; in the assay on HCT-116, 68 µM. For the same compound, the GI50 in the assay on NCI-H322M is 21.3 µM; with CCRF-CEM, 4.78 µM; in the assay on RXF 393, 2.85 µM; in the assay with NCI-H226, > 82.5 µM; with OVCAR-5, 34.3 µM.

As to `COC(=O)COc1ccc(C=NNC(=O)Cn2c(-c3ccc(OC)cc3)nc3cc(Cl)c(Cl)cc32)cc1OC` [Compound 10p, Methyl-2-(4-((2-(2-(5,6-dichloro-2-(4-methoxyphenyl)-1H-benzo[d]imidazol-1-yl)acetyl)hydrazono)methyl)-2-methoxyphenoxy)acetate], the GI50 with SK-MEL-2 is 10 µM; with SN12C, 2.2 µM; with MALME-3M, > 72.5 µM; with IGROV1 it was 3.6 µM; in the assay with K-562, > 72.5 µM; in the assay with ACHN, 5.42 µM. The GI50 with SNB-19 was > 72.5 µM; in the assay with HL-60(TB) it was > 72.5 µM; in the assay on U251, > 72.5 µM; in the assay on NCI-H460 it was 26.1 µM; in the assay with LOX IMVI it was 31.2 µM; in the assay with EKVX it was 18.9 µM. The concentration for 50% growth inhibition (GI50) was > 72.5 µM in the assay with MOLT-4; 1.9 µM in the assay on DU-145; 11.7 µM with HCC-2998; 22.9 µM with MDA-MB-435; > 72.5 µM with HCT-15; > 72.5 µM with HCT-116. For the same compound, the GI50 with NCI-H322M was 22.2 µM; in the assay on CCRF-CEM, > 72.5 µM; with RXF 393, 1.43 µM; in the assay on NCI-H226 it was > 72.5 µM; in the assay with OVCAR-5, 24 µM.

As for `COC(=O)COc1cc(C=NNC(=O)Cn2c(-c3ccc(OC)cc3)nc3cc(Cl)c(Cl)cc32)ccc1OC` [Compound 10o, Methyl-2-(5-((2-(2-(5,6-dichloro-2-(4-methoxyphenyl)-1H-benzo[d]imidazol-1-yl)acetyl)hydrazono)methyl)-2-methoxyphenoxy)acetate], the GI50 in the assay on SK-MEL-2 was 21.6 µM; in the assay with SN12C it was 7.92 µM; in the assay on MALME-3M, > 100 µM; in the assay with IGROV1 it was 14.7 µM; in the assay on K-562 it was > 100 µM; in the assay on ACHN, 14.2 µM. For the same compound, the GI50 in the assay on SNB-19 was > 100 µM; with HL-60(TB), > 100 µM; in the assay with U251, > 100 µM; in the assay on NCI-H460, > 100 µM; in the assay on LOX IMVI, > 100 µM; in the assay on EKVX, 89.2 µM. The 50% growth inhibitory concentration (GI50) with MOLT-4 is 14.2 µM; with DU-145, 4.79 µM; in the assay with HCC-2998, 13.4 µM; in the assay with MDA-MB-435, > 100 µM; with HCT-15 it was > 100 µM; with HCT-116, > 100 µM. In addition, the GI50 in the assay with NCI-H322M is 60.4 µM; with CCRF-CEM it was > 100 µM; in the assay with RXF 393, 11 µM; in the assay with NCI-H226, > 100 µM; in the assay on OVCAR-5, > 100 µM.
